Values after ≈ are worked out from the molar mass of the structure shown. “Also recorded” adds a separate entry of the source. Like-named read-outs stand apart in the source and are kept apart here.
Assays:
M. morganii IID Kono = test: MIC, agar plate dilution method; type: cell-based; conditions: Morganella morganii; M. morganii IID Kono; 37° C., 20 hours; read-out: MIC
Procedure: (§1) Assay of minimum inhibitory concentration (MIC) was performed according to the agar plate dilution method (Method of Japan Society of Chemotherapy, CHEMOTHERAPY 29, 76-79, 1981).
(§2) Test organisms used were 27 types of microorganisms including clinical isolates of methicillin-resistant Staphylococcus aureus. Each test organism was cultured in Mueller-Hinton broth (2.1% w/v) (DIFCO) at 37° C. for 20 hours, and the cultured cells were suspended to about 10^6 cell counts/ml in the same medium, then was used as the microbial suspension for inoculation. The prepared microbial suspension was smeared by using the microplanter on MHA medium (Mueller-Hinton broth 2.1% (w/v) and agar 1.5%) containing K04-0144A substance, K04-0144B substance or K04-0144C substance, each of which was subjected to two-fold stepwise dilution from 128 μg/ml. After culturing at 37° C. for 20 hours, MIC was determined by macroscopically confirming the growth of microorganisms. Vancomycin, arbekacin and linezolid were used as a comparative control.

S. marcescens IFO12648 = test: MIC, agar plate dilution method; type: cell-based; conditions: Serratia marcescens; S. marcescens IFO12648; 37° C., 20 hours; read-out: MIC
Procedure: as §1, §2

[1] = tested on: E. facecalis NTCT12201(VanA); test: MIC, agar plate dilution method; type: cell-based; conditions: E. facecalis NTCT12201(VanA); 37° C., 20 hours; read-out: MIC
Procedure: as §1, §2

P. aeruginosa 46001 = test: MIC, agar plate dilution method; type: cell-based; conditions: Pseudomonas aeruginosa; P. aeruginosa 46001; 37° C., 20 hours; read-out: MIC
Procedure: as §1, §2

S. aureus Smith = test: MIC, agar plate dilution method; type: cell-based; conditions: Staphylococcus aureus; S. aureus Smith; 37° C., 20 hours; read-out: MIC
Procedure: as §1, §2

E. coli NIHJ JC-2 = test: MIC, agar plate dilution method; type: cell-based; conditions: Escherichia coli, NIHJJC2; E. coli NIHJ JC-2; 37° C., 20 hours; read-out: MIC
Procedure: as §1, §2

S. aureus ISP217 = test: MIC, agar plate dilution method; type: cell-based; conditions: Staphylococcus aureus; S. aureus ISP217; 37° C., 20 hours; read-out: MIC
Procedure: as §1, §2

[2] = tested on: E. faecium NTCT12203(VanA); test: MIC, agar plate dilution method; type: cell-based; conditions: Enterococcus faecium; E. faecium NTCT12203(VanA); 37° C., 20 hours; read-out: MIC
Procedure: as §1, §2

A. calcoaceticus IFO2552 = test: MIC, agar plate dilution method; type: cell-based; conditions: Acinetobacter calcoaceticus; A. calcoaceticus IFO2552; 37° C., 20 hours; read-out: MIC
Procedure: as §1, §2

S. epidermidis IFO12648 = test: MIC, agar plate dilution method; type: cell-based; conditions: Staphylococcus epidermidis; S. epidermidis IFO12648; 37° C., 20 hours; read-out: MIC
Procedure: as §1, §2

S. aureus ISP447 = test: MIC, agar plate dilution method; type: cell-based; conditions: Staphylococcus aureus; S. aureus ISP447; 37° C., 20 hours; read-out: MIC
Procedure: as §1, §2

M. luteus ATCC9341 = test: MIC, agar plate dilution method; type: cell-based; conditions: Micrococcus luteus; M. luteus ATCC9341; 37° C., 20 hours; read-out: MIC
Procedure: as §1, §2

E. cloacae IFO13535 = test: MIC, agar plate dilution method; type: cell-based; conditions: Enterobacter cloacae; E. cloacae IFO13535; 37° C., 20 hours; read-out: MIC
Procedure: as §1, §2

P. vulgaris OX-19 = test: MIC, agar plate dilution method; type: cell-based; conditions: Proteus vulgaris, OX19; P. vulgaris OX-19; 37° C., 20 hours; read-out: MIC
Procedure: as §1, §2

P. mirabilis IFO3849 = test: MIC, agar plate dilution method; type: cell-based; conditions: Proteus mirabilis; P. mirabilis IFO3849; 37° C., 20 hours; read-out: MIC
Procedure: as §1, §2

E. faecalis ATCC21212 = test: MIC, agar plate dilution method; type: cell-based; conditions: Enterococcus faecalis; E. faecalis ATCC21212; 37° C., 20 hours; read-out: MIC
Procedure: as §1, §2

S. aureus FDA209P = test: MIC, agar plate dilution method; type: cell-based; conditions: Staphylococcus aureus; S. aureus FDA209P; 37° C., 20 hours; read-out: MIC
Procedure: as §1, §2

C. freundii ATCC8090 = test: MIC, agar plate dilution method; type: cell-based; conditions: Citrobacter freundii; C. freundii ATCC8090; 37° C., 20 hours; read-out: MIC
Procedure: as §1, §2

K. pneumoniae NCTN9632 = test: MIC, agar plate dilution method; type: cell-based; conditions: Klebsiella pneumoniae; K. pneumoniae NCTN9632; 37° C., 20 hours; read-out: MIC
Procedure: as §1, §2

P. aeruginosa E-2 = test: MIC, agar plate dilution method; type: cell-based; conditions: Pseudomonas aeruginosa, E2; P. aeruginosa E-2; 37° C., 20 hours; read-out: MIC
Procedure: as §1, §2

E. aerogenes NCTC10006 = test: MIC, agar plate dilution method; type: cell-based; conditions: Klebsiella aerogenes; E. aerogenes NCTC10006; 37° C., 20 hours; read-out: MIC
Procedure: as §1, §2

MRSA 70 = test: MIC, agar plate dilution method; type: cell-based, methicillin-resistant Staphylococcus aureus; conditions: Staphylococcus aureus
Procedure: as §1, §2

MRSA 92-1191 = test: MIC, agar plate dilution method; type: cell-based, methicillin-resistant Staphylococcus aureus; conditions: Staphylococcus aureus; MRSA 92-1191; 37° C., 20 hours; read-out: MIC
Procedure: as §1, §2

MRSA N315 IR94 = test: MIC, agar plate dilution method; type: cell-based, methicillin-resistant Staphylococcus aureus; conditions: Staphylococcus aureus, 20 h
Procedure: as §1, §2

S. aureus 8325(pMS97) = test: MIC, agar plate dilution method; type: cell-based; conditions: Staphylococcus aureus, 20 h
Procedure: as §1, §2

S. aureus 8325(pEP2104) = test: MIC, agar plate dilution method; type: cell-based; conditions: Staphylococcus aureus, 20 h
Procedure: as §1, §2

MRSA N315 IR94 HR-1 = test: MIC, agar plate dilution method; type: cell-based, methicillin-resistant Staphylococcus aureus; conditions: Staphylococcus aureus, 20 h
Procedure: as §1, §2

Solubility in solvent = type: physicochemical; conditions: listed as K04-0144B Substance
[3] = MRSA 70, 37° C., 20 hours, read-out: MIC

Compound | MIC (M. morganii IID Kono) [µg/mL] | MIC (S. marcescens IFO12648) [µg/mL] | MIC [1] [µg/mL] | MIC (P. aeruginosa 46001) [µg/mL] | MIC (S. aureus Smith) [µg/mL] | MIC (E. coli NIHJ JC-2) [µg/mL] | MIC (S. aureus ISP217) [µg/mL] | MIC [2] [µg/mL] | MIC (A. calcoaceticus IFO2552) [µg/mL] | MIC (S. epidermidis IFO12648) [µg/mL] | MIC (S. aureus ISP447) [µg/mL] | MIC (M. luteus ATCC9341) [µg/mL] | MIC (E. cloacae IFO13535) [µg/mL] | MIC (P. vulgaris OX-19) [µg/mL] | MIC (P. mirabilis IFO3849) [µg/mL] | MIC (E. faecalis ATCC21212) [µg/mL] | MIC (S. aureus FDA209P) [µg/mL] | MIC (C. freundii ATCC8090) [µg/mL] | MIC (K. pneumoniae NCTN9632) [µg/mL] | MIC (P. aeruginosa E-2) [µg/mL] | other results
CC(=O)NC[C@H]1CN(c2ccc(N3CCOCC3)c(F)c2)C(=O)O1 [linezolid, reference compound] | > 32 | > 32 | 2 (≈ 5.93 µM) | > 32 | 2 (≈ 5.93 µM) | > 32 | 2 (≈ 5.93 µM) | 2 (≈ 5.93 µM) | > 32 | 2 (≈ 5.93 µM) | 2 (≈ 5.93 µM) | 2 (≈ 5.93 µM) | > 32 | 8 (≈ 23.7 µM) | > 32 | 2 (≈ 5.93 µM) | 1 (≈ 2.96 µM) | > 32 | > 32 | > 32 | MIC (E. aerogenes NCTC10006): > 32 µg/mL; MIC (MRSA 70; [3]): 0.5 µg/mL (≈ 1.48 µM); MIC (MRSA 92-1191): 2 µg/mL (≈ 5.93 µM); MIC (MRSA N315 IR94): 1 µg/mL (≈ 2.96 µM)
NCC[C@H](O)C(=O)N[C@@H]1C[C@H](N)[C@@H](O[C@H]2O[C@H](CN)CC[C@H]2N)[C@H](O)[C@H]1O[C@H]1O[C@H](CO)[C@@H](O)[C@H](N)[C@H]1O [arbekacin, reference compound] | 0.5 (≈ 0.905 µM) | 1 (≈ 1.81 µM) | > 32 | 1 (≈ 1.81 µM) | ≤ 0.25 | > 32 | ≤ 0.25 | 8 (≈ 14.5 µM) | ≤ 0.25 | ≤ 0.25 | ≤ 0.25 | ≤ 0.25 | 0.5 (≈ 0.905 µM) | 2 (≈ 3.62 µM) | 2 (≈ 3.62 µM) | > 32 | ≤ 0.25 | 0.5 (≈ 0.905 µM) | ≤ 0.25 | 4 (≈ 7.24 µM) | MIC (S. aureus 8325(pMS97)): ≤ 0.25 µg/mL; MIC (S. aureus 8325(pEP2104)): ≤ 0.25 µg/mL; MIC (E. aerogenes NCTC10006): ≤ 0.25 µg/mL; MIC (MRSA N315 IR94 HR-1): 1 µg/mL (≈ 1.81 µM); MIC (MRSA 70; [3]): 0.5 µg/mL (≈ 0.905 µM); MIC (MRSA 92-1191): 0.5 µg/mL (≈ 0.905 µM)
C=C(C/C=C(\C)CCC=C(C)C)CCC(C)(C)/C=C/CC/C(C)=C\COC(COP(=O)(O)OC1OC(C(N)=O)C(C)(O)C(OC(N)=O)C1OC1OC(CO)C(OC2OC(C)C(OC3OC(C(=O)O)C(O)C(O)C3O)C(O)C2NC(C)=O)C(O)C1NC(C)=O)C(=O)O (stereo not drawn) [K04-0144B] | > 16 | > 16 | 2 (≈ 1.51 µM) | > 16 | 2 (≈ 1.51 µM) | > 16 | 0.5 (≈ 0.377 µM) | > 16 | 8 (≈ 6.04 µM) | 8 (≈ 6.04 µM) | 0.5 (≈ 0.377 µM) | > 16 | > 16 | 4 (≈ 3.02 µM) | 16 (≈ 12.1 µM) | 2 (≈ 1.51 µM) | 2 (≈ 1.51 µM) | > 16 | > 16 | > 16 | MIC (S. aureus 8325(pMS97)): 1 µg/mL (≈ 0.755 µM); MIC (S. aureus 8325(pEP2104)): 0.06 µg/mL (≈ 0.0453 µM); MIC (E. aerogenes NCTC10006): > 16 µg/mL; MIC (MRSA N315 IR94 HR-1): 0.125 µg/mL (≈ 0.0943 µM); MIC (MRSA 70; MRSA, 20 h): 0.125 µg/mL (≈ 0.0943 µM); MIC (MRSA 92-1191): 1 µg/mL (≈ 0.755 µM); MIC (MRSA N315 IR94): 0.125 µg/mL (≈ 0.0943 µM); Solubility in solvent (Solubility in solvent): Soluble in water, methanol and dimethyl sulfoxide; also recorded: Insoluble in acetone, chloroform and n-hexane
